# Laboratory results published in US20050064014A1, “Use of cystathionine” (priority 2001, published 2005).
# Where two headings read alike, the source gives them in different places.
# How the values were obtained:
# [1] = Stability under THA sterilization conditions (140° C.-15″), 43 mM in SONDALIS; type: physicochemical; settings: THA sterilization 140° C.-15″
# Experimental: Stability Under THA Sterilization Conditions (140° C.-15''), at High Concentration (43 mM) in […] […] The THA conditions therefore conventionally induce much less degradation than those described above, but slightly more than industrial UHT conditions. The high concentration (43 mM) was chosen because it falls within the average of that which may be recommended in enteral nutrition products. Under these conditions, the losses of cysteine are lower than for the harsh sterilization conditions (121° C.-15') but remain much too high (27%) for use in a nutrition product.
# [2] = type: physicochemical; settings: for L-cystathionine (3 mM) Evaluated loss / L-cysteine (3 mM) Evaluated loss / L-cysteine (3 mM) Free cysteine / L-cysteine (3 mM) Oxidized cysteine: 121° C. for 15 minutes in an autoclave
# Experimental: (§1) The stability of the cystathionine compared to that of cysteine was tested with deionized water and in various liquid enteral formulae (SONDALIS and REABILAN). REABILAN and SONDALIS (registered trademarks) are different enteral compositions comprising 35% of energy in the form of lipids, 50-52.5% in the form of carbohydrates, in particular of maltodextrins and starches, 12.5-15% in the form of peptides or proteins, and also comprising vitamins, mineral salts and other compounds such as taurine or L-camitine.
# Stability Under Harsh Sterilization Conditions (121° C.-15 min) at 3 mM Concentration
# Unlike cysteine, the cystathionine is found to be very stable.
# In the enteral formulae, and after heat treatment, the amount of available cysteine decreases very substantially, and the relative loss of cysteine increases when the amount added decreases.
# glutathione status = assay: Physiological effectiveness: diet supplementation in infected rats (sepsis), glutathione concentration; type: in vivo; settings: standard protein diet supplemented with cystathionine, compared with cysteine positive control group
# Text: Groups of sick rats receiving differentiated diets are compared with regard to the glutathione concentration in various organs but especially in the liver. The liver is in fact the major organ for regulating glutathione synthesis in terms of the whole body. The compared groups received a standard protein diet supplemented either with an amino acid considered to be neutral with respect to glutathione (alanine) (control group), or with cysteine (positive control group), or with cystathionine (test group). A group of animals which are not sick is also realized (normal group).
# [3] = Maximum solubility in water; type: physicochemical; settings: water at 25° C.; read-out: maximum level of solubility in water
# Experimental: (§2) The cystathionine was added at its maximum level of solubility in water at 25° C., i.e. 0.6 mg/mL of water. The mixture was treated at 121° C. for 15 minutes in an autoclave and was analyzed.
# [4] = tested on: hepatic glutathione status; settings: rats with sepsis, diet supplemented with cysteine; cited from earlier work
# [5] = Stability in water, autoclave 121° C. for 15 minutes; type: physicochemical; settings: after 121° C. for 15 minutes
# Experimental: as §1, §2
# In water, cystathionine is very stable, even after treatment at 121° C. for 15 minutes, since the degree of recovery is 100%, and the cysteine is slightly oxidized to cystine (6%).
L-cystathionine (43 mM) Evaluated loss [1] [%],L-cystathionine (43 mM) Non-degraded form [1] [%],stability in the enteral formulae before heat treatment [2],L-cystathionine (3 mM) Evaluated loss ([2]; REABILAN) [%],L-cystathionine (3 mM) Evaluated loss ([2]; SONDALIS) [%],solubility [3] [µg/mL],L-cysteine (43 mM) Evaluated loss [1] [%],L-cysteine (43 mM) Free cysteine [1] [%],L-cysteine (43 mM) Oxidized cysteine [1] [%],L-cysteine (43 mM) Evaluated loss ([1]; listed as cysteine) [%],L-cysteine (3 mM) Evaluated loss ([2]; REABILAN) [%],L-cysteine (3 mM) Free cysteine ([2]; REABILAN) [%],L-cysteine (3 mM) Oxidized cysteine ([2]; REABILAN) [%],L-cysteine (3 mM) Evaluated loss ([2]; SONDALIS) [%],L-cysteine (3 mM) Free cysteine ([2]; SONDALIS) [%],L-cysteine (3 mM) Oxidized cysteine ([2]; SONDALIS) [%],oxidized to cystine [5] [%],Structure (SMILES),L-cystathionine (43 mM) Evaluated loss ([1]; listed as cystathionine),glutathione concentration (glutathione status),hepatic glutathione status [4]
4,96,very stable,0,17,600,–,–,–,–,–,–,–,–,–,–,–,"N[C@@H](CCSC[C@H](N)C(=O)O)C(=O)O [L-cystathionine, cystathionine]",at the limit of reproducibility of the assaying method,level equivalent to that of the positive control group,–
–,–,relatively unstable,–,–,–,27,66,7,27,83,12,5,86,11,3,6,"N[C@@H](CS)C(=O)O [L-cysteine, cysteine]",–,–,re-establish hepatic glutathione status at the level of a normal animal
